103 sequences from US20260250318A1, “COMPOSITIONS AND METHODS FOR CROSSING THE BLOOD BRAIN BARRIER” (VOYAGER THERAPEUTICS, INC., priority 2022, published 2026) can be followed below.

The test system of this assay is brain. Nature of the assay: Maturation of TTM-001 capsid, NGS enrichment in brain of CD-1 Outbred mice. Format: in vivo. As to conditions: NGS fold-enrichment of TTM-001 matured AAV capsid variants in the brain of CD-1 Outbred mice; intravenous 1.0×10^12 VG/dose; 14 days in life; RNA; relative to non-matured TTM-001 control. An excerpt:
This Example describes maturation of the TTM-001 (SEQ ID NO: 981 (amino acid) and 983 (DNA), comprising SEQ ID NO: 941) and TTM-002 (SEQ ID NO: 982 (amino acid) and 984 (DNA), comprising SEQ ID NO: 2) capsid variants to further enhance their transduction and biodistribution in the central nervous system and evolve the AAV capsid variants to provide further cross-species compatibility. Two approaches were used to mature the TTM-001 and TTM-002 capsid sequences in order to randomize and mutate within and around the peptide insert comprised within loop IV of the capsid variant. […] In the first maturation approach, sets of three contiguous amino acids were randomized across the mutagenesis region in the TTM-001 and TTM-002 sequences, which spanned from position 450 to position 466, numbered according to SEQ ID NO: 981 and 982. In the second maturation approach, mutagenic primers were used to introduce point mutations at a low frequency, scattered across the mutagenesis region in the TTM-001 and TTM-002 sequences ranging from position 449 to position 466, numbered according to SEQ ID NO: 981 and 982. AAV capsid variants arising from each maturation approach for TTM-001 were pooled together and AAV capsid variants arising from each maturation approach for TTM-002 were also pooled together, for subsequent testing and characterization in mice.
The library of pooled matured AAV capsid variants generated from TTM-001 or library of pooled matured AAV capsid variants generated from the TTM-002 matured AAV capsid variant each were intravenously injected into the tail vein of three female CD-1 Outbred mice (Charles River) at a dose of 1.0×10^12 VG/dose. After 14-days in life, the brains of the mice were isolated and RNA was extracted. Following RNA recovery and RT-PCR amplification, a systematic NGS enrichment analysis was performed to calculate the fold enrichment ratio relative to the corresponding TTM-001 or TTM-002 control, and the peptides comprised within the variants were identified. The data for the TTM-001 matured capsid variants is provided in Table 13 and the data for the TTM-002 matured capsid variants is provided in Table 14.

With KTINGVPSPHWKAQNQQT, the “Fold enrichment over TTM-001” value was determined as 2.758 fold.

Turning to KTINGSGSPHSKGIRQQT, the “Fold enrichment over TTM-001” value is 2.497 fold.

As to KTINGSGSPHSKRMSQQT, the “Fold enrichment over TTM-001” value is listed as 2.931 fold.

For the sequence KTINGSGSPHSKLLRQQT, the “Fold enrichment over TTM-001” value turned out to be 2.981 fold.

Turning to KTINGSGSPHFLLQNQQT, the “Fold enrichment over TTM-001” value worked out at 2.758 fold.

With KTINGSGSPHLYMQNQQT, the “Fold enrichment over TTM-001” value stood at 2.615 fold.

As to KTINGSGSPHSKAQFSLT, the “Fold enrichment over TTM-001” value is listed as 2.000 fold.

With KTINGSGSPHSLFANQQT, the “Fold enrichment over TTM-001” value was found to be 2.365 fold.

Consider KTTHCSGSPHSKAQNQQT, for which the “Fold enrichment over TTM-001” value worked out at 2.672 fold.

Turning to KTINGSGSPHSKASRGQT, the “Fold enrichment over TTM-001” value was 2.182 fold.

Regarding KTINGSGSPHSHWQNQQT, the “Fold enrichment over TTM-001” value was 2.676 fold.

Consider KTINGSLSPHYMAQNQQT, for which the “Fold enrichment over TTM-001” value is listed as 2.015 fold.

With KTINGSGSPHSKLRRQQT, the “Fold enrichment over TTM-001” value came to 6.231 fold.

In the case of KTINGSGSPHSKTIRQQT, the “Fold enrichment over TTM-001” value stood at 2.453 fold.

As to KTINGSGSPHSKAHRLQT, the “Fold enrichment over TTM-001” value is given as 2.603 fold.

As for KTINGMRSPHVKAQNQQT, the “Fold enrichment over TTM-001” value came out at 2.937 fold.

In the case of KTINGSGSPHTWTQNQQT, the “Fold enrichment over TTM-001” value worked out at 2.045 fold.

Regarding KTINGSGSPHLKRQNQQT, the “Fold enrichment over TTM-001” value is recorded as 2.564 fold.

Take KTINGSGSPHSKIRPQQT: the “Fold enrichment over TTM-001” value worked out at 2.080 fold.

Turning to KTINGSGSPHSKATRRQT, the “Fold enrichment over TTM-001” value was determined as 3.277 fold.

In the case of KTINGSGSPHSKLVRQQT, the “Fold enrichment over TTM-001” value is recorded as 2.801 fold.

Consider KGINGSGSPHGKAQNQQT, for which the “Fold enrichment over TTM-001” value is recorded as 2.084 fold.

Regarding KTINGSGSPHSKVSRQQT, the “Fold enrichment over TTM-001” value came to 2.108 fold.

Regarding KTINGSGSPHSKAQLIVT, the “Fold enrichment over TTM-001” value is reported as 2.235 fold.

With KTINGSGSPHSLRHNQQT, the “Fold enrichment over TTM-001” value was determined as 2.980 fold.

Regarding “KTINGSVSPHSWAQNQQT (peptide inserted in AAV capsid)”, the “Fold enrichment over TTM-001” value is 2.562 fold.

On to KTINGSGSPHLVFQNQQT, for which the “Fold enrichment over TTM-001” value is 2.376 fold.

For KTINGSGSPHSKARLWQT, the “Fold enrichment over TTM-001” value was 2.914 fold.

Consider KTINGSGSPHSKAQVVLT, for which the “Fold enrichment over TTM-001” value is on record as 2.438 fold.

As for KTINGSGSPHSKFLFQQT, the “Fold enrichment over TTM-001” value came to 3.173 fold.

Regarding KTINGSGSPHSKHLRQQT, the “Fold enrichment over TTM-001” value was 3.438 fold.

For the sequence KTIRLRGSPHSKAQNQQT, the “Fold enrichment over TTM-001” value is reported as 2.408 fold.

Consider KTINGKRSPHSKAQNQQT, for which the “Fold enrichment over TTM-001” value stood at 3.611 fold.

In the case of KTINGSGSPHSKAQLAKT, the “Fold enrichment over TTM-001” value is 2.238 fold.

Consider KTINGSGSPHSKLWSQQT, for which the “Fold enrichment over TTM-001” value was 2.190 fold.

As to KTINGSGSPHSRGRNQQT, the “Fold enrichment over TTM-001” value was 4.961 fold.

For the sequence KTINGSGSPHSKARLQQT, the “Fold enrichment over TTM-001” value came to 2.089 fold.

Regarding KTINGSGSPHSKSHRQQT, the “Fold enrichment over TTM-001” value came out at 2.145 fold.

Consider KTINGSGSPHSKAQLRRT, for which the “Fold enrichment over TTM-001” value is given as 3.825 fold.

Regarding KTINGSGSPHSKACPLQT, the “Fold enrichment over TTM-001” value came out at 2.285 fold.

On to KPLDGSGSPHSKAQNQQT, for which the “Fold enrichment over TTM-001” value was 2.488 fold.

As for KTINGSGSPHSKAQTNRT, the “Fold enrichment over TTM-001” value was determined as 2.510 fold.

On to KTINGSGSPHSKAQNWRT, for which the “Fold enrichment over TTM-001” value worked out at 2.125 fold.

Take KTINGSGSPHSFLLNQQT: the “Fold enrichment over TTM-001” value came out at 2.341 fold.

“KTINGSRSPHRPAQNQQT (peptide inserted in AAV capsid)”: the “Fold enrichment over TTM-001” value was 2.061 fold.

On to KTINGVTSPHWKAQNQQT, for which the “Fold enrichment over TTM-001” value was determined as 2.387 fold.

As for KTINGRLSPHFKAQNQQT, the “Fold enrichment over TTM-001” value turned out to be 2.097 fold.

Take KTINGSGSPHSKASCRQT: the “Fold enrichment over TTM-001” value was 2.840 fold.

On to KTINGSGSPHSKAWLLQT, for which the “Fold enrichment over TTM-001” value was determined as 2.240 fold.

“KTINGSRSPHSWAQNQQT (peptide inserted in AAV capsid)”: the “Fold enrichment over TTM-001” value was found to be 2.559 fold.

Regarding KDSLGSGSPHSKAQNQQT, the “Fold enrichment over TTM-001” value is given as 2.175 fold.

In the case of KTINGSGSPHVTWQNQQT, the “Fold enrichment over TTM-001” value came out at 2.281 fold.

For KTINGSGSPHSLRSNQQT, the “Fold enrichment over TTM-001” value was 2.778 fold.

In the case of KTINGSGSPHSKRSWQQT, the “Fold enrichment over TTM-001” value came to 3.838 fold.

With KTINGSGSPHSKAQVWFT, the “Fold enrichment over TTM-001” value was found to be 2.181 fold.

As for KTINGSGSPHSKPRSQQT, the “Fold enrichment over TTM-001” value worked out at 2.235 fold.

In the case of KTINGSGSPHSRSRNQQT, the “Fold enrichment over TTM-001” value is on record as 3.784 fold.

Regarding KTINGMRSPHGKAQNQQT, the “Fold enrichment over TTM-001” value was 2.527 fold.

In the case of “KTINGSTSPHRRAQNQQT (peptide inserted in AAV capsid)”, the “Fold enrichment over TTM-001” value is recorded as 3.089 fold.

On to KTINGSGSPHSKALWRQT, for which the “Fold enrichment over TTM-001” value is on record as 2.015 fold.

For KTINGSGSPHSKRLAQQT, the “Fold enrichment over TTM-001” value is 2.397 fold.

As to KTINGSGSPHTWLQNQQT, the “Fold enrichment over TTM-001” value amounted to 2.397 fold.

Consider KTINGRQSPHTKAQNQQT, for which the “Fold enrichment over TTM-001” value was 2.294 fold.

With KTINGSGSPHSKPSRQQT, the “Fold enrichment over TTM-001” value amounted to 2.438 fold.

For KTINGSGSPHTRRQNQQT, the “Fold enrichment over TTM-001” value came out at 3.350 fold.

In the case of KTINGTLSPHRKAQNQQT, the “Fold enrichment over TTM-001” value is 2.307 fold.

In the case of KTINGTSSPHCKAQNQQT, the “Fold enrichment over TTM-001” value was found to be 2.017 fold.

Take KTINGSGSPHSKACASQT: the “Fold enrichment over TTM-001” value turned out to be 2.775 fold.

Turning to KTINGSGSPHSKAQRWLT, the “Fold enrichment over TTM-001” value is reported as 2.788 fold.

Regarding KTINGSGSPHSKSVRQQT, the “Fold enrichment over TTM-001” value is 2.259 fold.

For KTINGSGSPHSKALKRQT, the “Fold enrichment over TTM-001” value is 2.836 fold.

With KTINLIRSPHSKAQNQQT, the “Fold enrichment over TTM-001” value came out at 2.920 fold.

As to KTINGSGSPHSYLINQQT, the “Fold enrichment over TTM-001” value was 2.650 fold.

In the case of KTINGRSSPHGKAQNQQT, the “Fold enrichment over TTM-001” value came out at 3.035 fold.

Consider KTINGSGSPHSKRTPQQT, for which the “Fold enrichment over TTM-001” value turned out to be 3.169 fold.

For KTINGLPSPHRKAQNQQT, the “Fold enrichment over TTM-001” value is recorded as 2.719 fold.

As for KDLRGSGSPHSKAQNQQT, the “Fold enrichment over TTM-001” value is listed as 2.238 fold.

As to KTINGSGSPHSLFPNQQT, the “Fold enrichment over TTM-001” value was determined as 2.106 fold.

KTINGSGSPHFHLQNQQT: the “Fold enrichment over TTM-001” value is listed as 2.121 fold.

Consider KTINGSGSPHRRMQNQQT, for which the “Fold enrichment over TTM-001” value is recorded as 2.004 fold.

For the sequence KTINGSGSPHSLCSNQQT, the “Fold enrichment over TTM-001” value is 3.413 fold.

Regarding KTINGSGSPHSKAQLILT, the “Fold enrichment over TTM-001” value came to 2.358 fold.

As to KTINGSGSPHSKARGQQT, the “Fold enrichment over TTM-001” value is 2.039 fold.

KTINGSGSPHSKARLAQT: the “Fold enrichment over TTM-001” value stood at 2.007 fold.

KTINGTPSPHRKAQNQQT: the “Fold enrichment over TTM-001” value was found to be 2.244 fold.

Regarding KTINGSLSPHIYAQNQQT, the “Fold enrichment over TTM-001” value is reported as 2.536 fold.

Consider KTINGSGSPHSKNLRQQT, for which the “Fold enrichment over TTM-001” value is given as 2.022 fold.

On to KTINGSGSPHSKTRLQQT, for which the “Fold enrichment over TTM-001” value is reported as 2.145 fold.

As for KTINGRKSPHSKAQNQQT, the “Fold enrichment over TTM-001” value was determined as 2.985 fold.

Turning to KTINGSGSPHSKAQNLRR, the “Fold enrichment over TTM-001” value stood at 2.231 fold.

With KTINGSGSPHSRWQNQQT, the “Fold enrichment over TTM-001” value is 3.372 fold.

In the case of “KTINGSSSPHCTAQNQQT (peptide inserted in AAV capsid)”, the “Fold enrichment over TTM-001” value is 5.607 fold.

For the sequence KGLVGSGSPHSKAQNQQT, the “Fold enrichment over TTM-001” value is listed as 2.412 fold.

For KTINGSGSPHSFVLNQQT, the “Fold enrichment over TTM-001” value is on record as 3.382 fold.

For the sequence KTINGSGSPHSCLLNQQT, the “Fold enrichment over TTM-001” value amounted to 3.127 fold.

For KTINGSGSPHSVYRNQQT, the “Fold enrichment over TTM-001” value was 2.432 fold.

As for KTINGSGSPHPFLQNQQT, the “Fold enrichment over TTM-001” value turned out to be 2.916 fold.

Regarding KTINGSGSPHSKRGLQQT, the “Fold enrichment over TTM-001” value is 2.402 fold.

Consider KTINGSGSPHSKQTRQQT, for which the “Fold enrichment over TTM-001” value amounted to 2.650 fold.

As for KTWVRSGSPHSKAQNQQT, the “Fold enrichment over TTM-001” value is on record as 2.186 fold.

In the case of KTINGSGSPHSKTCLQQT, the “Fold enrichment over TTM-001” value came to 3.717 fold.

Turning to KTINGSGSPHSKAQIRLT, the “Fold enrichment over TTM-001” value stood at 3.279 fold.

Take KTINGCSSPHRKAQNQQT: the “Fold enrichment over TTM-001” value came out at 2.291 fold.
